# Test results published in US20250222146A1, “Radiopharmaceuticals Targeting Somatostatin Receptor 2 and Uses Thereof” (RayzeBio, Inc., priority 2023, published 2025).
# Numbered stars: 1 amine (or outer) side, 2 acyl side, 3 side chain; on linkers, the order of the positions; unused ones are H or OH. Square brackets hold non-standard residues; d marks the D form. Peptide text beside a SMILES is read from it. * marks the point of attachment. DOTA(Lu)NH(CH2)6NHCOCH2 = O=C(CN1CCN2CCN3CCN(CC1)CC(=O)[O][Lu]([O]C(=O)C2)[O]C(=O)C3)NCCCCCCNC(=O)C*; X6 = O=C(CN1CCN2CCN3CCN(CC1)CC(=O)[O][Lu]([O]C(=O)C2)[O]C(=O)C3)NCCOCCOCCOCCNC(=O)C*; X17 = O=C(CN1CCN2CCN3CCN(CC1)CC(=O)[O][Lu]([O]C(=O)C2)[O]C(=O)C3)NCCNC(=O)C*; DOTA(Lu) = O=C1CN2CCN3CCN(CC(=O)*)CCN(CC2)CC(=O)[O][Lu]([O]1)[O]C(=O)C3; Ala(piperidin-4-yl) = O=C([C@H](CC1CCN([*:3])CC1)N[*:1])[*:2]; dTrp(βS-Me) = C[C@@H](c1c[nH]c2ccccc12)[C@@H](N)C(=O)O; Tyr(3,5-F2) = N[C@@H](Cc1cc(F)c(O)c(F)c1)C(=O)O; X19 = O=C([C@H](Cc1c[nH]c2ccncc12)N[*:1])[*:2]; Dip = N[C@H](C(=O)O)C(c1ccccc1)c1ccccc1; mTyr = N[C@@H](Cc1cccc(O)c1)C(=O)O; NMehCys = CN[C@@H](CCS)C(=O)O; NMeK = CN[C@@H](CCCCN)C(=O)O; Ethyl(2-NH2) = NCC*
# Target: SSTR2 (Homo sapiens, UniProt P30874)
# Sequence (P30874 whole entry): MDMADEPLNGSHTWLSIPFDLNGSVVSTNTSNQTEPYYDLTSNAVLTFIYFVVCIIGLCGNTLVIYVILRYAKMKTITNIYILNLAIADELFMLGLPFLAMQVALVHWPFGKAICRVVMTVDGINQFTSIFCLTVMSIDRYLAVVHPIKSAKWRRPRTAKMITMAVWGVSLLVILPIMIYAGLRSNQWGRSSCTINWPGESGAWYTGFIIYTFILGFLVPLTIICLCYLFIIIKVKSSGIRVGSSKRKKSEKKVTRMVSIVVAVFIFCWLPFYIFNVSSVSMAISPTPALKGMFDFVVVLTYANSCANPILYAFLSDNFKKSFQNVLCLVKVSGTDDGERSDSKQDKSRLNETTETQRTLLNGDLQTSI
# Test: SSTR binding affinity by radioligand binding competition assay ([125I]-Tyr11-Somatostatin, membrane extracts)
# Details: SSTR2 Ki, radioligand competition, [125I]-Tyr11-Somatostatin 0.1 nM, membrane extracts; Ki from IC50 by Cheng Prusoff
row,Structure (SMILES),Ki [nM]
1,C[C@@H](O)[C@@H]1NC(=O)[C@@H](CCCCN)NC(=O)[C@@H](Cc2c[nH]c3ccccc23)NC(=O)[C@H](Cc2ccc(O)cc2)NC(=O)[C@H](CCSCC(=O)NCCCCCCNC(=O)CN2CCN3CCN4CCN(CC2)CC(=O)[O][Lu]([O]C(=O)C3)[O]C(=O)C4)N(C)C(=O)[C@H](Cc2ccccc2)NC1=O [RB-0005827],10 to 33.3
2,C[C@@H](O)[C@@H]1NC(=O)[C@H](CCCCN)NC(=O)[C@H](Cc2c[nH]c3ccccc23)NC(=O)[C@H](Cc2ccc(O)cc2)NC(=O)[C@H](CCSCC(=O)NCCCCCCNC(=O)CN2CCN3CCN4CCN(CC2)CC(=O)[O][Lu]([O]C(=O)C3)[O]C(=O)C4)N(C)C(=O)[C@H](Cc2ccccc2)NC1=O [RB-0005858],1 to 3.33
3,C[C@@H](O)[C@@H]1NC(=O)[C@H](CCCCN)NC(=O)[C@@H](Cc2c[nH]c3ccccc23)NC(=O)[C@H](Cc2ccc(O)cc2)NC(=O)[C@@H](CCSCC(=O)NCCCCCCNC(=O)CN2CCN3CCN4CCN(CC2)CC(=O)[O][Lu]([O]C(=O)C3)[O]C(=O)C4)N(C)C(=O)[C@H](Cc2ccccc2)NC1=O [RB-0005866],1 to 3.33
4,C[C@@H](O)[C@@H]1NC(=O)[C@H](CCCCN)NC(=O)[C@H](Cc2c[nH]c3ccccc23)NC(=O)[C@H](Cc2ccc(O)cc2)NC(=O)[C@H](CCSCC(=O)NCCCCCCNC(=O)CN2CCN3CCN4CCN(CC2)CC(=O)[O][Lu]([O]C(=O)C3)[O]C(=O)C4)N(C)C(=O)[C@H](Cc2ccccc2)NC1=O [RB-0005905],< 1
5,C[C@@H](O)[C@@H]1NC(=O)[C@H](CCCCN)NC(=O)[C@H](Cc2c[nH]c3ccccc23)NC(=O)[C@H](Cc2ccc(O)cc2)NC(=O)[C@H](CCSCC(=O)NCCCCCCNC(=O)CN2CCN3CCN4CCN(CC2)CC(=O)[O][Lu]([O]C(=O)C3)[O]C(=O)C4)N(C)C(=O)[C@H](Cc2ccccc2)NC1=O [RB-0005907],3.33 to 10

# Same assay, conditions: radioligand competition, [125I]-Tyr11-Somatostatin 0.1 nM, membrane extracts; Ki from IC50 by Cheng Prusoff; read-out: SSTR2 Ki
row,Structure (SMILES),Ki [nM]
1,C[C@@H](O)[C@@H]1NC(=O)[C@H](CCCCN)NC(=O)[C@@H](Cc2c[nH]c3ccccc23)NC(=O)[C@H](Cc2ccc(O)cc2)NC(=O)[C@H](CNC(=O)[C@@H](CC(=O)O)NC(=O)CCCCCNC(=O)CN2CCN3CCN4CCN(CC2)CC(=O)[O][Lu]([O]C(=O)C3)[O]C(=O)C4)N(C)C(=O)[C@H](Cc2ccccc2)NC1=O [RB-0005734],1 to 3.33
2,C[C@@H](O)[C@@H]1NC(=O)[C@H](CCCCN)NC(=O)[C@@H](Cc2c[nH]c3ccccc23)NC(=O)[C@H](Cc2ccc(O)cc2)NC(=O)[C@H](CNC(=O)C[C@@H](NC(=O)CCCCCNC(=O)CN2CCN3CCN4CCN(CC2)CC(=O)[O][Lu]([O]C(=O)C3)[O]C(=O)C4)C(=O)O)N(C)C(=O)[C@H](Cc2ccccc2)NC1=O [RB-0005736],3.33 to 10
3,C[C@@H](O)[C@@H]1NC(=O)[C@H](CCCCN)NC(=O)[C@@H](Cc2c[nH]c3ccccc23)NC(=O)[C@H](Cc2ccc(O)cc2)NC(=O)[C@H](CCSCC(=O)NCCOCCOCCOCCNC(=O)CN2CCN3CCN4CCN(CC2)CC(=O)[O][Lu]([O]C(=O)C3)[O]C(=O)C4)N(C)C(=O)[C@H](COc2ccccc2)NC1=O [RB-0005738],< 1
4,"C[C@@H](O)[C@@H]1NC(=O)[C@H](CCCCN)NC(=O)[C@@H](Cc2c[nH]c3ccccc23)NC(=O)[C@H](Cc2cc(F)c(O)c(F)c2)NC(=O)[C@H](CCSCC(=O)NCCCCCCNC(=O)CN2CCN3CCN4CCN(CC2)CC(=O)[O][Lu]([O]C(=O)C3)[O]C(=O)C4)N(C)C(=O)[C@H](Cc2ccccc2)NC1=O [RB-0005740] (cyclo(F[NMehCys](DOTA(Lu)NH(CH2)6NHCOCH2)[Tyr(3,5-F2)][dW]KT))",< 1
5,C[C@@H]1NC(=O)[C@H](CCCCN)NC(=O)[C@@H](Cc2c[nH]c3ccccc23)NC(=O)[C@H](Cc2ccc(O)cc2)NC(=O)[C@H](CCSCC(=O)NCCCCCCNC(=O)CN2CCN3CCN4CCN(CC2)CC(=O)[O][Lu]([O]C(=O)C3)[O]C(=O)C4)N(C)C(=O)[C@H](Cc2ccccc2)NC1=O [RB-0005744] (cyclo(AF[NMehCys](DOTA(Lu)NH(CH2)6NHCOCH2)Y[dW]K)),< 1
6,C[C@@H](O)[C@@H]1NC(=O)[C@H](CC2CCNCC2)NC(=O)[C@@H]([C@@H](C)c2c[nH]c3ccccc23)NC(=O)[C@H](Cc2ccc(O)cc2)NC(=O)[C@H](CCCCNC(=O)CN2CCN3CCN4CCN(CC2)CC(=O)[O][Lu]([O]C(=O)C3)[O]C(=O)C4)N(C)C(=O)[C@H](Cc2ccccc2)NC1=O [RB-0005797] (cyclo(F[NMeK](DOTA(Lu))Y[dTrp(βS-Me)][Ala(piperidin-4-yl)]T)),< 1
7,C[C@@H]1NC(=O)[C@H]([C@@H](C)O)NC(=O)[C@H](CC2CCNCC2)NC(=O)[C@@H]([C@@H](C)c2c[nH]c3ccccc23)NC(=O)[C@H](Cc2ccc(O)cc2)NC(=O)[C@H](CCSCC(=O)NCCCCCCNC(=O)CN2CCN3CCN4CCN(CC2)CC(=O)[O][Lu]([O]C(=O)C3)[O]C(=O)C4)N(C)C1=O [RB-0005807] (cyclo(A[NMehCys](DOTA(Lu)NH(CH2)6NHCOCH2)Y[dTrp(βS-Me)][Ala(piperidin-4-yl)]T)),< 1
8,C[C@@H]1NC(=O)[C@H]([C@@H](C)O)NC(=O)[C@H](CC2CCNCC2)NC(=O)[C@@H](Cc2c[nH]c3ccccc23)NC(=O)[C@H](C(c2ccccc2)c2ccccc2)NC(=O)[C@H](CCSCC(=O)NCCCCCCNC(=O)CN2CCN3CCN4CCN(CC2)CC(=O)[O][Lu]([O]C(=O)C3)[O]C(=O)C4)N(C)C1=O [RB-0005809] (cyclo(A[NMehCys](DOTA(Lu)NH(CH2)6NHCOCH2)[Dip][dW][Ala(piperidin-4-yl)]T)),1 to 3.33
9,C[C@@H](O)[C@@H]1NC(=O)[C@H](CCCCN)NC(=O)[C@@H](Cc2c[nH]c3ccccc23)NC(=O)[C@H](Cc2ccc(O)cc2)NC(=O)[C@H](C2CCN(C(=O)CCCCCNC(=O)CN3CCN4CCN5CCN(CC3)CC(=O)[O][Lu]([O]C(=O)C4)[O]C(=O)C5)CC2)N(C)C(=O)[C@H](Cc2ccccc2)NC1=O [RB-0005852],33.3 to 100
10,C[C@@H](O)[C@@H]1NC(=O)[C@H](CCCCN)NC(=O)[C@@H](Cc2c[nH]c3ccccc23)NC(=O)[C@H](Cc2ccc(O)cc2)NC(=O)[C@H](CC2CCN(C(=O)CCCCCNC(=O)CN3CCN4CCN5CCN(CC3)CC(=O)[O][Lu]([O]C(=O)C4)[O]C(=O)C5)CC2)N(C)C(=O)[C@H](Cc2ccccc2)NC1=O [RB-0005854],10 to 33.3
11,C[C@@H](O)[C@@H]1NC(=O)[C@H](CCCCN)NC(=O)[C@@H](Cc2c[nH]c3ccccc23)NC(=O)[C@H](Cc2ccc(O)cc2)NC(=O)[C@H](CCSCC(=O)NCCCCCCNC(=O)CN2CCN3CCN4CCN(CC2)CC(=O)[O][Lu]([O]C(=O)C3)[O]C(=O)C4)N(C)C(=O)[C@@H]2CCCN2C1=O [RB-0005864] (cyclo(KTP[NMehCys](DOTA(Lu)NH(CH2)6NHCOCH2)Y[dW])),1 to 3.33
12,C[C@@H](O)[C@@H]1NC(=O)[C@H](CCCCN)NC(=O)[C@@H](Cc2c[nH]c3ccccc23)NC(=O)[C@H](Cc2ccc(O)cc2)NC(=O)[C@H](CC(=O)NCCCCCCNC(=O)CN2CCN3CCN4CCN(CC2)CC(=O)[O][Lu]([O]C(=O)C3)[O]C(=O)C4)N(C)C(=O)[C@H](Cc2ccccc2)NC1=O [RB-0005895],3.33 to 10
13,C[C@@H](O)[C@@H]1NC(=O)[C@H](COCCN)NC(=O)[C@@H](Cc2c[nH]c3ccccc23)NC(=O)[C@H](Cc2ccc(O)cc2)NC(=O)[C@H](CCSCC(=O)NCCCCCCNC(=O)CN2CCN3CCN4CCN(CC2)CC(=O)[O][Lu]([O]C(=O)C3)[O]C(=O)C4)N(C)C(=O)[C@H](Cc2ccccc2)NC1=O [RB-0005899] (cyclo(F[NMehCys](DOTA(Lu)NH(CH2)6NHCOCH2)Y[dW]S(Ethyl(2-NH2))T)),< 1
14,C[C@@H](O)[C@@H]1NC(=O)[C@H](CCCCN)NC(=O)[C@H](Cc2c[nH]c3ccncc23)NC(=O)[C@H](Cc2ccc(O)cc2)NC(=O)[C@H](CCSCC(=O)NCCCCCCNC(=O)CN2CCN3CCN4CCN(CC2)CC(=O)[O][Lu]([O]C(=O)C3)[O]C(=O)C4)N(C)C(=O)[C@H](Cc2ccccc2)NC1=O [RB-0005903] (cyclo(F[NMehCys](DOTA(Lu)NH(CH2)6NHCOCH2)Y[X19]KT)),< 1
15,C[C@@H](O)[C@@H]1NC(=O)[C@H](CC2CCNCC2)NC(=O)[C@@H](Cc2c[nH]c3ccccc23)NC(=O)[C@H](Cc2ccc(O)cc2)NC(=O)[C@H](CCCCNC(=O)CN2CCN3CCN4CCN(CC2)CC(=O)[O][Lu]([O]C(=O)C3)[O]C(=O)C4)N(C)C(=O)[C@H](Cc2ccc(O)cc2)NC1=O [RB-0005983] (cyclo([NMeK](DOTA(Lu))Y[dW][Ala(piperidin-4-yl)]TY)),3.33 to 10
16,C[C@@H](O)[C@@H]1NC(=O)[C@H](CC2CCNCC2)NC(=O)[C@@H](Cc2c[nH]c3ccccc23)NC(=O)[C@H](Cc2ccc(O)cc2)NC(=O)[C@H](CCCCNC(=O)CN2CCN3CCN4CCN(CC2)CC(=O)[O][Lu]([O]C(=O)C3)[O]C(=O)C4)N(C)C(=O)[C@H](Cc2cccc(O)c2)NC1=O [RB-0005984] (cyclo([NMeK](DOTA(Lu))Y[dW][Ala(piperidin-4-yl)]T[mTyr])),1 to 3.33
17,C[C@@H](O)[C@@H]1NC(=O)[C@H](CC2CCNCC2)NC(=O)[C@@H]([C@@H](C)c2c[nH]c3ccccc23)NC(=O)[C@H](Cc2ccc(O)cc2)NC(=O)[C@H](CCCCNC(=O)CN2CCN3CCN4CCN(CC2)CC(=O)[O][Lu]([O]C(=O)C3)[O]C(=O)C4)N(C)C(=O)[C@H](Cc2cccc(O)c2)NC1=O [RB-0005985] (cyclo([NMeK](DOTA(Lu))Y[dTrp(βS-Me)][Ala(piperidin-4-yl)]T[mTyr])),< 1
18,C[C@@H](O)[C@@H]1NC(=O)[C@H](CC2CCNCC2)NC(=O)[C@@H]([C@@H](C)c2c[nH]c3ccccc23)NC(=O)[C@H](Cc2ccc(O)cc2)NC(=O)[C@H](CCSCC(=O)NCCNC(=O)CN2CCN3CCN4CCN(CC2)CC(=O)[O][Lu]([O]C(=O)C3)[O]C(=O)C4)N(C)C(=O)[C@H](Cc2ccccc2)NC1=O [RB-0005990] (cyclo(F[NMehCys](X17)Y[dTrp(βS-Me)][Ala(piperidin-4-yl)]T)),< 1
19,C[C@@H](O)[C@@H]1NC(=O)[C@H](CC2CCNCC2)NC(=O)[C@H](Cc2c[nH]c3ccccc23)NC(=O)[C@H](Cc2ccc(O)cc2)NC(=O)[C@H](CCSCC(=O)NCCOCCOCCOCCNC(=O)CN2CCN3CCN4CCN(CC2)CC(=O)[O][Lu]([O]C(=O)C3)[O]C(=O)C4)N(C)C(=O)[C@H](Cc2ccccc2)NC1=O [RB-0005992] (cyclo(F[NMehCys](X6)YW[Ala(piperidin-4-yl)]T)),3.33 to 10
